Laboratory results as given in patent US20210038742A1, “CONJUGATION OF TLR7 AGONIST TO NANO-MATERIALS ENHANCES THE AGONISTIC ACTIVITY” (priority 2019, published 2021).

Columns and labels:
TLR7 [1] = molecular target: T1, TLR7 (Mus musculus, UniProt P58681); experiment: IL-6 release in mouse BMDCs (ELISA); type: cell-based
T1 construct: endogenous in cells; host or cells: mouse bone marrow-derived dendritic cells (BMDCs)
T1 sequence (P58681 27-1050): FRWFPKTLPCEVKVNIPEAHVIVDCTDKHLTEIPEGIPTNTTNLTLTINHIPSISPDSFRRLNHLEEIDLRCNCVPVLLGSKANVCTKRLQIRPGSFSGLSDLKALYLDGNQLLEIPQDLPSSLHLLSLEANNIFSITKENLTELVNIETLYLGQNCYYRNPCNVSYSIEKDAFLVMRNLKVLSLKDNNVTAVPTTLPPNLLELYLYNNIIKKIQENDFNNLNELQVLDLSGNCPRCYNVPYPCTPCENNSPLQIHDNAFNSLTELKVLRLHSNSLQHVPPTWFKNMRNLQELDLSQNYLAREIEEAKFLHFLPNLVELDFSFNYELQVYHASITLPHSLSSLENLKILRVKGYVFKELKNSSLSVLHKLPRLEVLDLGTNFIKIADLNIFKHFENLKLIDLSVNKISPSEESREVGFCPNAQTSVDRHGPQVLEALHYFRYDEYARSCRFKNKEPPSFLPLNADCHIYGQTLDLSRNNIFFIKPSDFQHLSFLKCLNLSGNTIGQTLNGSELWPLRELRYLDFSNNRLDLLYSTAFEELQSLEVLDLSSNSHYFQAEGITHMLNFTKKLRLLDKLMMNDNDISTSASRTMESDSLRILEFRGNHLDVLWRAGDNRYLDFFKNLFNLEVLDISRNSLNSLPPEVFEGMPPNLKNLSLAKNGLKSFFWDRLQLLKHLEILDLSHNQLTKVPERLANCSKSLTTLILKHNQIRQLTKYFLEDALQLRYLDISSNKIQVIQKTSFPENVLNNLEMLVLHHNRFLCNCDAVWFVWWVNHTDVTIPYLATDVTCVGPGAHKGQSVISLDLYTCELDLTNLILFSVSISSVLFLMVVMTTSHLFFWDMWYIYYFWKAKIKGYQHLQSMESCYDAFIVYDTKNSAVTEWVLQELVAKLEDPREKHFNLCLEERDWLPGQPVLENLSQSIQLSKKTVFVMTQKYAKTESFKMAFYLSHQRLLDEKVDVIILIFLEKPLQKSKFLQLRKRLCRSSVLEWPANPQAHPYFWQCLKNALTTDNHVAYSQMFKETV
Experimental: (§1) FIGS. 4A-4E. […] Mouse BMDCs or human PBMCs were plated and incubated with serially diluted 1V209 nanoshells conjugates at different coating densities (high, medium, or low density conjugates, unconjugated TLR7 ligand 1V209, or silica nanoshells for 18 hours. Control cells were treated with 1 μM resiquimod or 0.5% DMSO as vehicle. IL-6 (A) and IL-12 (B) released in the culture supernatants of mouse BMDCs were measured using ELISA. (C) Cytotoxicity in BMDCs was measured by MTT assay. (D) IL-6 released in the culture supernatants of human PBMCs. (E) IL-6 released in the culture supernatants BMDCs isolated from TLR7 deficient mice.
(§2) The correlation between TLR7 ligands density and cytokines induction level was further investigated. To test this, mouse bone marrow-derived dendritic cells (BMDCs) or human peripheral blood mononuclear cells (PBMCs) were treated with unconjugated 1V209, SiO2 nanoshells, or 1V209-nanoshell conjugates with different coating densities (high, medium, or low coating densities). The levels of IL-6 and IL-12 release in the culture supernatant were measured. […] Different formula of conjugates were also tested their cytotoxicity in BMDCs. […] To determine whether the immune potency of 1V209-nanoshell conjugates was TLR7 specific, conjugates was performed in TLR7 deficient BMDCs. […] Thus, high coating of TLR7 agonists silica shells are denoted as 1v209-NS conjugates in the following description.

NLRP3 inflammasome = experiment: IL-1β release in BMDCs (ELISA); type: cell-based, mouse; details: supernatant
Experimental: FIGS. 5A-5C. TLR7 agonist-silica nanoshells conjugates generate high level of IL-1p in BMDCs. 75-2500 nM of TLR7 agonist-silcia shells conjugates were incubated with BMDCs for 24 hours at 37° C., 5% CO2. IL-1β level in supernatant was determined by ELISA. Mechanism figure reference: He, Y. et. al. (2016).
FIG. 24. In vitro IL-1β release of NS-TLR and mixture in BMDCs. 75-2500 nM of NS-TLR (high coating density) and mixture of silica nanoshells and 1V209 were incubated with wild type BMDCs for 18 hours. IL-1p cytokine was measured via ELISA. Dose response curves are in means SD. Data were analyzed by t test.
IL-1β secretion by dendritic cells is mandatory for T cell priming (Ghiringhelli et al., 2009). A two-pronged pathway has been proposed for NLRP3 inflammasome activation in macrophages and DCs. In this model, the first signal is triggered by microbial or endogenous molecules that generate NLRP3 and pro-IL-1p expression through activation of NF-κB; the second signal is triggered by ATP, pore-forming toxins, viral RNA and particulate matters such as silica nanoparticles. […] Resting DCs/macrophages have insufficient NLRP3 in the cells, and therefore, incubating with NLRP3 activator (silica nanoshells) results in no or minimal IL-1β.

CT26 tumors = experiment: CT26 tumor model, intratumoral monotherapy (tumor growth, CD3 IHC, IFN-γ RT-qPCR); type: in vivo, mouse; details: single agent
Description: FIGS. 13A-13F. Tumor growth regression in mice treated with NS-TLR7a. BALB/c mice were implanted with CT26 cells and treatment began when tumors reached 100 mm^3. Mice (n=5/group) were randomized and treated with vehicle (PBS), silica NS, unconjugated agonist (TLR7a), or NS-TLR7a every other day. Tumor tissues were collected on day 10 post treatment for analysis. A) Protocol of treatment. B) Average tumor growth curves per treatment. (C and D) Immunohistochemistry (IHC) images of CD3^+ cells infiltrating into the tumor environments for (C) unconjugated TLR7a or (D) TLR7a-NS conjugates locally injected tumor. (E and F) IFN-γ gene expression level (E) and (F) quantified CD3^+ T cells (F) in tumor samples for vehicle, NS, TLR7a, and TLR7a-NS conjugate treated groups (n=4-5/group). Representative IHC images were shown. […]
Animals and Tumor Model: Mouse colon cancer cell line CT26 (Cat. No. CRL-2638) was purchased from American Type Culture Collection (ATCC). […] Tumor volume was determined by caliper with the formula: volume (mm^3)=(width×width×length)/2. […]
To test the anti-tumor effects of TLR7 with or without conjugation onto silica nanoshells in vivo, silica NS, unconjugated TLR7a (TLR7 agonist), and NS-TLR7a were tested in a CT26 mouse tumor model. […] On day 8, tumors were harvested for immunohistochemistry (IHC) analysis and CD3^+ cells were assessed as T cell population in the tumor microenvironment.

TLR7 [2] = molecular target: T1, TLR7; experiment: IL-12 release in mouse BMDCs (ELISA); type: cell-based
Experimental: as §1
FIG. 23. In vitro cytokine induction of NS-TLR in murine cells. Mouse BMDCs (10^5 cells) were plated and incubated with serially diluted 100 nm NS-TLR at different coating densities for 18 hours. IL-12 released in the culture supernatants of mouse BMDCs incubated with unconjugated 1V209, high, medium, low coating density NS-TLR, and silica shells. IL-12 cytokine was measured via ELISA. All data are representative dose response curves in mean±SD with triplicate technical repeats. Data are representative of three independent experiments showing similar results. Data were analyzed by two-way ANOVA with Tukey's post hoc analysis.
as §2

[3] = BMDCs, 18 hours, ELISA, means ± SD

Emax, IL-6, normalized to unconjugated 1V209 (=1X) (TLR7 [1]): 1 ×
EC50 (TLR7 [1]; [3]): 1.07 ± 0.101 µM
Emax, IL-6 (TLR7 [1]; [3]): 9.9 ± 1.0 ng/mL
Emax, IL-12, normalized to unconjugated 1V209 (=1X) (TLR7 [2]): 1 ×
EC50 (TLR7 [2]; [3]): 0.883 ± 0.193 µM
Emax, IL-12 (TLR7 [2]; [3]): 3.2 ± 2.3 ng/mL
Structure (SMILES): COCCOc1nc(N)c2[nH]c(=O)n(Cc3ccc(C(=O)O)cc3)c2n1 [1V209, 4-[6-Amino-2-(2-methoxyethoxy)-8-oxo-7H-purin-9(8H)-yl]methylbenzoic acid]
IL-1β level (NLRP3 inflammasome): very low levels or zero
tumor remission (CT26 tumors): did not result in tumor remission
